The structures appear in SMILES notation. Read-outs that look alike come from different tables or passages of the source.

Data set [1] deals with Aedes aegypti resistant to permethrin (Key West strain). Briefly: Wind tunnel bioassay, various pyrethroids (Example 7). It counts as in vivo. The note with it: pyrethroid alone 0.5% A.I., C8910 0%, 24 hours post-spray, mean. From the text:
This exposed 80 caged A. aegypti to the spray. Each test was replicated four times.

In data set [2] the test system is pyrethroid susceptible Aedes aegypti. The experiment in a line: CDC bottle bioassay, susceptible strain. It is filed as in vivo. Here is the method:
(§1) The following bioassays were performed to determine how pyrethroid susceptible and pyrethroid resistant Aedes aegypti responded to exposure to permethrin and the fatty acids mixture, separately and combined. The standard Centers for Disease Control (“CDC”) bottle bioassay method was used. The testing was conducted at Centro Internacional de Entrenamiento e Investigaciones Médicas (“CIDEIM”) in Colombia with susceptible and resistant Aedes aegypti. The compounds were diluted in acetone, added to the bottles, and bottles were rolled to coat them internally until dry. Susceptible and resistant mosquitoes were exposed inside the treated bottles.
(§2) Bottle bioassays assess susceptibility by measuring time-to-death of mosquitoes exposed in bottles coated internally with a “diagnostic concentration” of the test compound.

The test system of data set [3] is pyrethroid resistant Aedes aegypti. Briefly: CDC bottle bioassay, resistant strain. The note with it: bottle coated with diagnostic concentration, n=5. It is filed as in vivo. On the procedure:
as §1, §2

The test system of data set [4] is Aedes aegypti resistant and susceptible to permethrin. The experiment in a line: WHO wind tunnel bioassay (Example 4). The note with it: 24 hour mortality. It is filed as in vivo. On the procedure:
In this bioassay, the standard WHO wind tunnel bioassay was used by CIDEIM. Aedes aegypti that were known to be resistant and susceptible to permethrin were used in the studies. […] solutions were prepared with the following ratios of C8, 9, 10 fatty acids mixture to permethrin: 2:1 (0.67% C8910+0.33% permethrin); 1:1 (0.5% C8910+0.5% permethrin); and 1:2 (0.33% C8910+0.67% permethrin). A one percent permethrin formulation was tested as well as a C8, 9, 10 fatty acids mixture.
The solutions were diluted in acetone to 1%, 0.1%, 0.01%, 0.001%, 0.0001%, and 0.00001%. Then 0.5 ml of each dilution was sprayed into the wind tunnel. This exposed 20 caged mosquitos to the spray. Each test was replicated three times. The 24 hour mortality was then observed. This type of assay is desirable because it tests the compounds without being formulated.

The subject of data set [5] is Aedes aegypti resistant to permethrin (Key West strain). The note with it: observed, C8910 0%. An excerpt:
(§3) In this bioassay, Aedes aegypti known to be resistant to permethrin (Key West strain) were exposed to C8, 9, 10 alone, permethrin alone, and combinations of C8, 9, 10 and permethrin at 1:5, 1:2, 1:1, 2:1 and 5:1 ratios in a standard wind tunnel bioassay. The actives were suspended in 1 milliliter oil-based ultra-low volume sprays and sprayed into the wind tunnel. This exposed 80 caged A. aegypti to the spray. Each test was replicated four times. Fifteen-minute, one-hour and twenty-four hour mortality of the resistant A. aegypti was then observed.
(§4) Synergy was calculated using Abbott's synergy equation described in Levy Y et al., The joint action of fungicides in mixtures: comparison of two methods for synergy calculation, Bulletin OEPP/EPPO Bulletin, 1986, 16, 651-657. Specifically, a ratio greater than 1.0 of observed to expected percent mortality for combinations of two pesticides is evidence of synergy. Expected % mortality was calculated using the formula % Cexp=A+B−[…] where A is percent mortality of A. aegypti exposed to C8, 9, 10, B is percent mortality of A. aegypti exposed to permethrin and Cexp is expected percent mortality of A. aegypti exposed to a combination of C8, 9, 10 and permethrin.

Data set [6] concerns A. aegypti susceptible to permethrin (Benzon research strain). The following applies: observed, C8910 0%.
Source text: as §3, §4
In this assay, A. aegypti known to be susceptible to permethrin (Benzon research strain) were exposed to C8, 9, 10 alone, permethrin alone, and combinations of C8, 9, 10 and permethrin at 1:5, 1:2, 1:1, 2:1 and 5:1 ratios in a standard wind tunnel bioassay identical to that described above.

Data set [7] relates to Cimex lectularius resistant to deltamethrin (Lex8 strain). The following applies: observed, d-Phenothrin 0.375% alone. On the procedure: as §4
(§5) The actives were suspended in 1 milliliter oil-based ultra-low volume sprays and sprayed into the wind tunnel. This exposed 10 adult male beg bugs to the spray. Each test was replicated three times. 1, 2, 3 and 4-day mortality of the bed bugs was then observed.

The subject of data set [8] is Cimex lectularius susceptible to insecticides (Harold Harlan strain). The following applies: observed, d-Phenothrin 0.25% alone. Here is the method:
as §4, §5

[9] abbreviates: susceptible strain, bottle coated with diagnostic concentration, n=5.

For the compound `CC(C)=C[C@@H]1[C@@H](C(=O)O[C@H](C#N)c2cccc(Oc3ccccc3)c2)C1(C)C` (relative stereo) [d,d,trans-cyphenothrin, d,d,trans-Cyphenothrin], the “% Mortality 24 hour” value in data set [1] is recorded as 76%.
By mortality is commonly meant the percentage killed. Consider `CC1(C)C(C(=O)OC(C#N)c2cccc(Oc3ccccc3)c2)C1(C)C` (centres unmarked) [Fenpropathrin], for which, in data set [1] (Aedes aegypti), the mortality at 0.5 % strength came to 65%.
The compound `CC1(C)C(C=C(Cl)Cl)C1C(=O)OCc1cccc(Oc2ccccc2)c1` (centres unmarked) [Permethrin] showed a mortality in data set [2] (susceptible mosquitos, at about 80 minutes, FIG. 1) of approximately 100%. The figures for the “LT50” value in data set [2] (setting [9]) and in data set [3] were 18.8 min and 73.5 min, respectively. The entries for the “LT99” value in data set [2] (setting [9]) and in data set [3] were 99.3 min and 306.7 min, respectively. Further, the “mortality rate of resistant compared with susceptible mosquitos” value in data set [4] was “lower mortality rates”. The “% Mortality” value in data set [5] (15 min, Permethrin 1.6%) is reported as 28.1%; in data set [5] (15 min, Permethrin 4.0%), 34.4%; in data set [5] (1 hour, Permethrin 1.6%), 41.6%; in data set [5] (1 hour, Permethrin 4.0%), 49.4%; in data set [5] (24 hour, Permethrin 1.6%), 55.0%; in data set [5] (24 hour, Permethrin 4.0%), 63.4%. The “% Mortality” value in data set [6] (15 min, Permethrin 0.4%) is on record as 4.4%; in data set [6] (15 min, Permethrin 1.0%), 26.9%; in data set [6] (1 hour, Permethrin 0.4%), 34.1%; in data set [6] (1 hour, Permethrin 1.0%), 54.4%; in data set [6] (24 hour, Permethrin 0.4%), 42.5%; in data set [6] (24 hour, Permethrin 1.0%), 65.3%.
Consider `CC(C)=CC1C(C(=O)OCc2cccc(Oc3ccccc3)c2)C1(C)C` (stereo not drawn) [d-Phenothrin, Sumithrin (d-phenothrin)], for which the “% Mortality” value in data set [7] (1 day) is listed as 6.7%; in data set [7] (2 days) it was 10.0%; in data set [8] (1 day), 0.0%; in data set [8] (2 days) it was 0.0%; in data set [8] (3 days), 46.7%; in data set [8] (4 days) it was 56.7%.

The values above are taken from patent publication US20180125068A1, “OCTANOIC, NONANOIC AND DECANOIC FATTY ACIDS WITH PYRETHROID ADULTICIDES” (priority 2016, published 2018).
